# Reference: patent publication US11612662B2, “Multi-arm polymeric prodrug conjugates of pemetrexed-based compounds” (priority 2010, dated 2023)
# Assays:
# in vivo = conditions: for MTD at 10 days: female, SCID (HsdIcr:Ha (ICR)-Prkdc-scid), iv; for MTD at 10 days / Max. Mean Body Weight change during Rx (%): intravenously once each day for ten days; for Days of Deaths (s = surviving at study end): five mice listed singly; for Day of Max. Mean Body Weight Loss (body weight nadir) / % Rx Related Deaths: once each day for ten days
# Protocol: The purpose of this study was to determine the maximum tolerated dose for pemetrexed (PMX), Compound 20a (from Example 1), Compound 20b (from Example 1), Compound 20c (from Example 1), and Compound 20d (from Example 1) in female SCID mice fed a low folate diet. All compounds were administered intravenously, once each day, for ten consecutive days.
# Calculations were made to provide “dose equivalents” between PMX, Compound 20a, Compound 20b, Compound 20c and Compound 20d, which “dose equivalents” along with the “actual dose” administered are provided in Table 2. All dosagese in this example are expressed in terms of “dose equivalents” and adjustments were made for excipients, salts and hydration state.
# Female SCID mice (HsdIcr:Ha (ICR)-Prkdc-scid) were obtained from Harlan. They were seven weeks old on Day 1 of the experiment. The mice in Groups 1 and 2 were fed irradiated Rodent Diet 5053 (LabDiet™). The mice in Groups 3 through 19 were fed irradiated Folic Acid Deficient Purina TestDiet supplemented with 1% succinylsufathiazol from 14 days prior to dosing until 14 days after dosing was completed, at which time the study was terminated and the mice were then euthanized. All groups received drinking water ad libitum. Mice were housed in static cages in clean rooms that provide H.E.P.A filtered air into the environment at 100 complete air changes per hour. All treatments, body weight determinations, and tumor measurements were carried out in the environment. The environment was controlled to a temperature range of 70°±2° F. and a humidity range of 30-70%. […] Mice found in obvious distress or in a moribund condition were euthanized. The study was carried out in an AAALAC accredited facility.
# Treatments began on Day 1. […] Mice in Groups 3 through 19 were fed irradiated Folic Acid Deficient Purina TestDiet with 1% Succinylsufathiazol for 14 days prior to dosing as well as throughout the entire experiment. All mice were dosed according to individual body weight on the day of treatment (0.2 ml/20 g).
# Mice were weighed on each day of treatment and at least three times weekly thereafter. Individual body weights were recorded three times weekly. […] In this report, a dosage level is described as tolerated if treatment-related weight loss (during and two weeks after treatment) is <20%. Upon death or euthanasia, all mice were necropsied to provide a general assessment of potential cause of death and perhaps target organs for toxicity.
# [1] = Single dose maximum tolerated dose study; assay type: in vivo, mice; conditions: single intravenous dose
# Protocol: Because of too much efficacy of daily dosing for ten days in a pilot xenograft study (likely due to the effects of repeated dosing), a single dose maximum tolerated dose study was conducted using a method similar to that provided in Example 3 in order to have a better dosing schedule for a comparative xenograft study.
# xenograft = assay: In vivo xenograft study; set-up: species or system female athymic nu/nu mice; conditions: as of day 26; intravenously, at 80% and at 50% of the single dose maximum tolerated dose
# Protocol: Briefly, for run of the experiment, a previously untreated group of 8-12 week old mice was intravenously administered a test article prepared in saline and diluted to appropriate concentrations to allow administration volumes of a maximum of 20 mL/kg. Each compound of interest was tested twice: once at 80% of the maximum tolerated dose and once at 50% of the maximum tolerated (maximum tolerated doses calculated on the single dose maximum tolerated dose study).
# Mice were observed daily for clinical signs and body weights were recorded daily (except on weekend days) then biweekly until the end of study. Dosing was terminated for any group in which mean weight loss exceeded 20% or >10% of animals died. Moribund animals were euthanized.
# [2] = in vivo; cited from earlier work
# [3] = low folate diet, 1 mg/kg/inj dose equivalents
# [4] = low folate diet, 3.75 mg/kg/inj dose equivalents
# [5] = low folate diet, dosage levels found tolerated
# [6] = low folate diet, dosage levels found toxic
# [7] = low folate diet, 15 mg/kg/inj dose equivalents
# [8] = low folate diet, 60 mg/kg/inj dose equivalents
smiles,measurement,setting,value
"Nc1nc2[nH]cc(CCc3ccc(C(=O)N[C@@H](CCC(=O)O)C(=O)O)cc3)c2c(=O)[nH]1 [Pemetrexed, pemetrexed]",MTD at 10 days,"in vivo; mouse, in vivo, MTD (maximum tolerated dose), mice fed a folate deficient diet, dose equivalents",1 mg/kg
same,MTD at 10 days,"in vivo; mouse, in vivo, maximum tolerated dose, mice fed a conventional diet",< 250 mg/kg
same,maximum treatment-related body weight loss,"in vivo; low folate diet, 1 mg/kg",12.8%
same,Days of Deaths (s = surviving at study end),in vivo; [3],"s, s, s, s, s"
same,tolerability of the dosage level,"in vivo; low folate diet, 1 mg/kg, tolerated if treatment-related weight loss <20%",tolerated
same,Days of Deaths (s = surviving at study end),in vivo; [4],"s, s, s, s, s"
same,tolerability of the dosage level,"in vivo; low folate diet, 3.75 mg/kg, tolerated if treatment-related weight loss <20%",toxic
same,tolerability of the dosage level,"in vivo; low folate diet, 15 mg/kg, tolerated if treatment-related weight loss <20%",toxic
same,tolerability of the dosage level,"in vivo; low folate diet, 60 mg/kg, tolerated if treatment-related weight loss <20%",toxic
same,body weight nadir (Day),"in vivo; low folate diet, across 60, 15 and 3.75 mg/kg",10-12
same,common clinical signs,in vivo; [5],rough pelage
same,necropsy findings,in vivo; [5],nothing significant
same,common clinical signs,in vivo; [6],rough pelage and diarrhea
same,necropsy findings,in vivo; [6],"bloated, air-filled stomachs, pale livers, and necrotic intestines"
same,Max. Mean Body Weight change during Rx (%),in vivo; [3],−12.8%
same,Max. Mean Body Weight change during Rx (%),in vivo; [4],−30.7%
same,Max. Mean Body Weight change during Rx (%),in vivo; [7],−38.4%
same,Max. Mean Body Weight change during Rx (%),in vivo; [8],−38.1%
same,Day of Max. Mean Body Weight Loss (body weight nadir),in vivo; [3],12
same,% Rx Related Deaths,"in vivo; low folate diet, 1 mg/kg/inj dose equivalents, 1 mg/kg",0%
same,% Rx Related Deaths,"in vivo; low folate diet, 1 mg/kg/inj dose equivalents, listed as PMX, 1 mg/kg",no treatment-related mortality
same,% Rx Related Deaths,in vivo; [4],0%
same,Day of Max. Mean Body Weight Loss (body weight nadir),in vivo; [4],12
same,% Rx Related Deaths,in vivo; [7],40%
same,Day of Max. Mean Body Weight Loss (body weight nadir),in vivo; [7],10
same,% Rx Related Deaths,in vivo; [8],100%
same,Day of Max. Mean Body Weight Loss (body weight nadir),in vivo; [8],10
same,tolerability of the dosage level,"in vivo; mouse, in vivo",toxic
same,Lethality,"in vivo; normal diet, 500 mg/kg",100%
same,MTD,"[1]; mouse, in vivo, dose equivalents",50 mg/kg
same,BWL (body weight loss),[1]; tested dose (equiv) 50,−9.7%
same,day (of body weight loss),[1]; tested dose (equiv) 50,2
same,treatment-related deaths,[1]; tested dose (equiv) 50,0
same,BWL (body weight loss),[1]; tested dose (equiv) 80,−3.8%
same,day (of body weight loss),[1]; tested dose (equiv) 80,2
same,treatment-related deaths,[1]; tested dose (equiv) 80,0
same,BWL (body weight loss),[1]; tested dose (equiv) 120,−4.1%
same,day (of body weight loss),[1]; tested dose (equiv) 120,2
same,treatment-related deaths,[1]; tested dose (equiv) 120,0
same,tumor volume compared with saline control,xenograft,significantly less tumor volume than saline control
same,drug excreted unchanged in the urine,[2],70-90%
same,half-life,[2],3.5 h
